From patent publication EP4745134A1 (Jiangsu Yahong Meditech Co., Ltd., priority 2023, dated 2025)

Target: PRMT5-MTA (Homo sapiens, UniProt O14744)
Assay: Enzymatic inhibitory activity against PRMT5-MTA (AlphaScreen)
Type: biochemical
Settings: read-out: IC50
Procedure: The AlphaScreen method was used to detect the enzymatic inhibitory activity of the compounds against PRMT5-MTA. 1 x Methyltransferase assay buffer IV (signalchem) was prepared as a solution for diluting each component for the enzymatic reaction. PRMT5/[…] protein of a final concentration of 1 nM, […] (sigma) of a final concentration of 1 uM and S-(5'-adenosine)-L-methionine chloride dihydrochloride (sigma) of a final concentration of 2.5 uM were mixed, then incubated for 30 minutes at room temperature, and transferred to an OptiPlate-384 well plate (PerkinElmer) at a volume of 6 uL per well, for which no PRMT5/[…] protein was added to the control wells. The test compound was 3-fold serially diluted into 10 concentrations, starting from a concentration of 1000 nM, and the series of diluted compounds were added to all wells except the control wells in the well plate using Tecan D300e. The well plate was subjected to centrifugation for 1 minute at 1000 rpm in a centrifuge, and then incubated for 15 minutes at 23°C. Histone H4 substrate of a final concentration of 5 nM was added to the well plate at 4 uL per well, centrifuged for 1 minute at 1000 rpm in a centrifuge, then placed in an incubator at 23°C and reacted for 45 minutes. Anti-histone H4 (symmetrical dimethyl R3) antibody (Abcam) was incubated with 50 ug/mL of AlphaScreen Protein A Acceptor beads (PerkinElmer) for 10 minutes at room temperature beforehand, and then added to the well plate at a volume of 10 uL per well. The mixture was reacted for 1 hour at room temperature. 50 Ug/mL of AlphaScreen Streptavidin Donor beads (PerkinElmer) was added at 10 uL per well, and reacted for 1 hour at room temperature. The signal values were detected for the well plate through the Alpha method using an Envision multifunctional microplate-reader, and the IC50 values for inhibition of the compounds on PRMT5/MET50 enzyme activity were calculated in Xlfit 5.0 software. Table 1. IC50 values for inhibition of the compounds on PRMT5+MTA enzyme activity

Sequence of PRMT5-MTA (O14744 whole entry): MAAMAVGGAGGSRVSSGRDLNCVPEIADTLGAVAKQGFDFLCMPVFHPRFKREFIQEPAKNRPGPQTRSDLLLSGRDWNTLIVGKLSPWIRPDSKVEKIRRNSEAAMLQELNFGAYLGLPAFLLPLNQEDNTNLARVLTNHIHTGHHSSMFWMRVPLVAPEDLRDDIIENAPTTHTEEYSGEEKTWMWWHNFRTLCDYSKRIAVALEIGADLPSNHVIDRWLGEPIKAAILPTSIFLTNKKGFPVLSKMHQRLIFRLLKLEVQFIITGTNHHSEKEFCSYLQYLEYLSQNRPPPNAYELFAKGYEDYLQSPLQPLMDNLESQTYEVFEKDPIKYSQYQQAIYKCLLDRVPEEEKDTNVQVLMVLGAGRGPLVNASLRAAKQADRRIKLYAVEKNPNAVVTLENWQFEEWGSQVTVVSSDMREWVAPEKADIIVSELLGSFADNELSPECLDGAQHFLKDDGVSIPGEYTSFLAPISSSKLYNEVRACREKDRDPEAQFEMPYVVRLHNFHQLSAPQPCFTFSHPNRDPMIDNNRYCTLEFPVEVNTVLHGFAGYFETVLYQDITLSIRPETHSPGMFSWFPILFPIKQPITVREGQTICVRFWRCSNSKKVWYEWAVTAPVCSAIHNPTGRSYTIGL
Sequence of PRMT5-MTA (Q9BQA1 whole entry partner): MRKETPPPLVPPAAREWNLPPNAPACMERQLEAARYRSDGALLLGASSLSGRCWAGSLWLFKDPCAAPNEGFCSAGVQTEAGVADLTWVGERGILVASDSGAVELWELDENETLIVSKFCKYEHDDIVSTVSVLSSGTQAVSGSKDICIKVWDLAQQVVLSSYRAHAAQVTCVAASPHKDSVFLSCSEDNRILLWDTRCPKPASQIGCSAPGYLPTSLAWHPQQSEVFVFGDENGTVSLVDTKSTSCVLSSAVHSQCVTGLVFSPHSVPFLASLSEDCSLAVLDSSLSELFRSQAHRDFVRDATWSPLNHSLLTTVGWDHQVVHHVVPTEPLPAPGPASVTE

Row | Structure (SMILES) | IC50
1 | Cc1cc(N)nc2ccc(C(=O)N(Cc3ccc(C(F)(F)F)cn3)N(C)c3ncccn3)cc12 [Compound 30, 2-amino-N',4-dimethyl-N'-(pyrimidin-2-y 1)-N-((5-(trifluoromethyl)pyridin-2-yl)methyl)quinoline-6-carbohydrazide] | 1.9 nM
2 | Cc1cc2nc(N)c3cnn(C)c3c2cc1C(=O)N(C)N1CCc2ncccc21 [Compound 114, 4-amino-N-(2,3-dihydro-1H-pyrrolo[3,2-b]pyridin-1-yl)-N,1,7-trimethyl-1H-pyraz olo[4,3-c]quinoline-8-carboxamide] | 4 nM
3 | Cc1cc2cc(C(=O)N(Cc3ccc(-c4ccc(N(C)C5CC5)nc4)cn3)N(C)c3ncccn3)ccc2nc1N [Compound 247, 2-amino-N-((6'-(cyclopropyl(methyl)amino)-[3,3'-bipyridine]-6-yl)methyl)-N',3-di methyl-N'-(pyrimidin-2-yl)quinoline-6-carbohydrazide] | 7.7 nM
4 | Cc1ncsc1-c1ccc(CN(C(=O)c2ccc3nc(N)c(CF)cc3c2)N(c2ncccn2)C2CC2)nc1 [Compound 324, 2-amino-N'-cyclopropyl-3-(fluoromethyl) -N-((5-(4-methylthiazol-5-yl)pyridin-2-yl)methyl)-N'-(pyrimidin-2-yl)quinoline-6-carbohydrazide] | 4.4 nM
5 | COCCN(c1ncccn1)N(Cc1ccc(C(F)(F)F)cn1)C(=O)c1ccc2nc(N)c(C)cc2c1 [Example 4, 2-amino-N'-(2-methoxyethyl)-3-methyl-N'-(pyrimidin-2-yl)-N-((5-(trifluoromethyl)pyridin-2-yl)methyl)quinoline-6-carbohydrazide] | 2 nM
6 | Cc1cc2cc(C(=O)N(Cc3ccccn3)N(C)c3ncccn3)ccc2nc1N [Example 9, 2-amino-N',3-dimethyl-N-(pyridin-2-ylmethyl)-N'-(pyrimidin-2-yl)quinoline-6-carbohydrazide] | 3.2 nM
7 | CN(c1ncccn1)N(Cc1ccc(C(F)(F)F)cn1)C(=O)c1ccc2nc(N)c3cnn(C)c3c2c1 [Example 11, 4-amino-N',1-dimethyl-N'-(pyrimidin-2-y 1)-N-((5-(trifluoromethyl)pyridin-2-yl)methyl)-1H-pyrazolo[4,3-c]quinoline-8-carb ohydrazide] | 1 nM
8 | CN(c1ncccn1)N(Cc1ccc(C(F)(F)F)cn1)C(=O)c1ccc2nc(N)c3c(c2c1)COC3 [Example 12, 4-amino-N'-methyl-N'-(pyrimidin-2-yl)-N-((5-(trifluoromethyl)pyridin-2-yl)methyl)-1,3-dihydrofuro[3,4-c]quinoline-8-car bohydrazide] | 7.8 nM
9 | Cc1cc2nc(N)c3cnn(C)c3c2cc1C(=O)N(Cc1ccc(C(F)(F)F)cn1)N(C)c1ncccn1 [Example 13, 4-amino-N',1,7-trimethyl-N'-(pyrimidin-2-yl)-N-((5-(trifluoromethyl)pyridin-2-yl)methyl)-1H-pyrazolo[4,3-c]quinoline-8-c arbohydrazide] | 4 nM
10 | CN(c1ncccn1)N(Cc1ccc(C(F)(F)F)cn1)C(=O)c1cc2c(cc1F)nc(N)c1cnn(C)c12 [Example 14, 4-amino-7-fluoro-N',1-dimethyl-N'-(pyrimidin-2-yl)-N-((5-(trifluoromethyl)pyridin-2-yl)methyl)-1H-pyrazolo[4,3-c]quinoline-8-carbohydrazide] | 2 nM
11 | CN(c1ncccn1)N(Cc1ccc(C(F)(F)F)cn1)C(=O)c1cc2c(cc1Cl)nc(N)c1cnn(C)c12 [Example 17, 4-amino-7-chloro-N',1-dimethyl-N'-(pyrimidin-2-yl)-N-((5-(trifluoromethyl)pyridin-2-yl)methyl)-1H-pyrazolo[4,3-c]quinoline-8-carbohydrazide] | 7 nM
12 | Cc1cc2cc(C(=O)N(Cc3ccc(C(F)(F)F)cn3)n3cnc4cccnc43)ccc2nc1N [Example 27, 2-amino-N-(3H-imidazo[4,5-b]pyridin-3-yl)-3-methyl-N-((5-(trifluoromethyl)pyridin-2-yl)methyl)quinoline-6-carboxamide] | 4 nM
13 | CN(c1ncccn1)N(Cc1ccc(C(F)(F)F)cn1)C(=O)c1ccc2nc(N)cc(C3CC3)c2c1 [Example 29, 2-amino-4-cyclopropyl-N'-methyl-N'-(pyrimidin-2-yl)-N-((5-(trifluoromethyl)pyridin-2-yl)methyl)quinoline-6-carbohydrazide] | 1.6 nM
14 | CN(C(=O)c1cc2c(cc1F)nc(N)c1cnn(C)c12)N1CCc2cc(C(F)(F)F)cnc21 [Example 31, 4-amino-7-fluoro-N,1-dimethyl-N-(5-(trifluoromethyl)-2,3-dihydro-1H-pyrrolo[2,3-b]pyridin-1-yl)-1H-pyrazolo[4,3-c]quinoline-8-carboxamide] | 3.5 nM
15 | CN(C(=O)c1cc2c(cc1F)nc(N)c1cnn(C)c12)N(C)c1ncc(C(F)(F)F)cc1F [Example 37, 4-amino-7-fluoro-N'-(3-fluoro-5-(trifluor omethyl)pyridin-2-yl)-N,N',1-trimethyl-1 H-pyrazolo[4,3-c]quinoline-8-carbohydrazide] | 3.5 nM
16 | Cc1cc2cc(C(=O)N(Cc3ncccc3C(F)(F)F)N(C)c3ncccn3)ccc2nc1N [Example 41, 2-amino-N',3-dimethyl-N'-(pyrimidin-2-yl)-N-((3-(trifluoromethyl)pyridin-2-yl)methyl)quinoline-6-carbohydrazide] | 3.9 nM
17 | Cc1cc2cc(C(=O)N(Cc3ccc(C(F)(F)F)cn3)N(C)c3cc(C(F)(F)F)ccn3)ccc2nc1N [Example 43, 2-amino-N',3-dimethyl-N'-(4-(trifluoromethyl)pyridin-2-yl)-N-((5-(trifluoromethyl)pyridin-2-yl)methyl)quinoline-6-carbohydrazide] | 3.8 nM
18 | Cc1cc2cc(C(=O)N(Cc3ccc(C(F)(F)F)cn3)N(C)c3c(F)cccc3C(F)(F)F)ccc2nc1N [Example 44, 2-amino-N'-(2-fluoro-6-(trifluoromethyl)phenyl)-N',3-dimethyl-N-((5-(trifluoromethyl)pyridin-2-yl)methyl)quinoline-6-car bohydrazide] | 1.9 nM
19 | Cc1cc2cc(C(=O)N(Cc3ccc(C(F)(F)F)cn3)N(C)c3nccc4ccccc34)ccc2nc1N [Example 45, 2-amino-N'-(isoquinol-1-yl)-N',3-dimethyl-N-((5-(trifluoromethyl)pyridin-2-yl)methyl)quinoline-6-carbohydrazide] | 3.1 nM
20 | CN(c1ccc(C(F)(F)F)cn1)N(CC(F)(F)F)C(=O)c1ccc2nc(N)c3c(c2c1)COC3 [Example 54, 4-amino-N'-methyl-N-(2,2,2-trifluoroethyl)-N'-(5-(trifluoromethyl)pyridin-2-yl)-1,3-dihydrofuro[3,4-c]quinoline-8-carbohydrazide] | 15.8 nM
21 | CN(C(=O)c1ccc2nc(N)c3c(c2c1)COC3)N(C)c1ccc(C(F)(F)F)cn1 [Example 55, 4-amino-N,N'-dimethyl-N'-(5-(trifluoromethyl)pyridin-2-yl)-1,3-dihydrofuro[3,4-c]quinoline-8-carbohydrazide] | 4.6 nM
22 | Cc1cc2cc(C(=O)N(Cc3ccc(F)cn3)N(C)c3ncccn3)ccc2nc1N [Example 71, 2-amino-N-((5-fluoropyridin-2-yl)methyl)-N',3-dimethyl-N'-(pyrimidin-2-yl)quin oline-6-carbohydrazide] | 3.3 nM
23 | Cc1cc2cc(C(=O)N(Cc3ccc(C(F)(F)F)cn3)N(C)c3ncc(C(F)(F)F)cn3)ccc2nc1N [Example 77, 2-amino-N',3-dimethyl-N-((5-(trifluoromethyl)pyridin-2-yl)methyl)-N'-(5-(trifluor omethyl)pyrimidin-2-yl)quinoline-6-carbohydrazide] | 1.1 nM
24 | Cc1cc2cc(C(=O)N(Cc3ccc(C(F)(F)F)cn3)N(C)c3cccnn3)ccc2nc1N [Example 79, 2-amino-N',3-dimethyl-N'-(pyridazin-3-yl)-N-((5-(trifluoromethyl)pyridin-2-yl)methyl)quinoline-6-carbohydrazide] | 9.7 nM

Test system: HCT116 MTAP KO cells
Assay: Inhibitory activity against cell proliferation (CellTiter Glo, 6 days), HCT116 MTAP KO
Type: cell-based
Settings: Homo sapiens, HCT-116, 144 h, HCT116 MTAP KO cells, 6 days, CellTiter Glo; read-out: HCT116 MTAP KO IC50
Procedure: HCT116-WT (ATCC, CCL-247) and HCT116 MTAP KO (Nanjing Cobioer, CBP75002) cells were seeded into white low-transparency sterile 96-well cell culture plates at a density of 250 cells per well respectively, and the culture medium was McCoy's 5A Medium+10% FBS. The plates were placed under the condition of 37°C and 5% CO2 to be cultured overnight. The cells were treated with 4-fold serially diluted compounds of 8 concentration points starting at an initial concentration of 10000 nM, and the last two columns were used as control wells to which only DMSO was added. The drug-treated cells were further cultured for 6 days. On day 7, CellTiter Glo® reagent was added at 50 uL per well, and after reaction under shaking for 10 minutes at room temperature, the chemiluminescence signals were detected for the well plates through the chemiluminescence detection method using a BIOTEK H1 multifunctional microplate-reader. The IC50 values for inhibition of the compounds on cell viability were calculated in X1fit 5.0 software. Table 2. IC50 values for inhibition of the compounds on HCT116 MTAP KO/WT cell growth

Row | Structure (SMILES) | IC50
25 | CN(c1ncccn1)N(Cc1ccc(C(F)(F)F)cn1)C(=O)c1ccc2c(c1)nc(N)n2C [Example 36, 2-amino-N',1-dimethyl-N'-(pyrimidin-2-yl)-N-((5-(trifluoromethyl)pyridin-2-yl)methyl)-1H-benzo[d]imidazole-5-carbohydrazide] | > 10000 nM
